PubChem BioAssay (NCI)
Where “and” joins values, the source holds several entries; their conditions need not be identical. Identical values can stand only once.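 Assay format: 96-well plates, 48-hour exposure. The concentration for 50% growth inhibition is given as GI50. TGI denotes the concentration required for complete inhibition of growth.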

How the values were obtained:
Experiment in all cases: NCI tumour cell line growth inhibition, 48 h
OVCAR-4 ovarian = tested on: OVCAR-4 ovarian
A549 NSCLC = tested on: A549 NSCLC
MDA-MB-435 = tested on: MDA-MB-435
IGROV1 ovarian = tested on: IGROV1 ovarian
786-0 renal = tested on: 786-0 renal
HT29 colon = tested on: HT29 colon
OVCAR-8 ovarian = tested on: OVCAR-8 ovarian
MDA-MB-231 breast = tested on: MDA-MB-231 breast
LXFL 529 NSCLC = tested on: LXFL 529 NSCLC

Structure (SMILES)	TGI (OVCAR-4 ovarian)	TGI (A549 NSCLC)	TGI (MDA-MB-435)	TGI (IGROV1 ovarian)	TGI (786-0 renal)	TGI (HT29 colon)	TGI (OVCAR-8 ovarian)	TGI (MDA-MB-231 breast)	GI50 (OVCAR-4 ovarian)	GI50 (A549 NSCLC)	GI50 (MDA-MB-435)	GI50 (IGROV1 ovarian)	GI50 (786-0 renal)	GI50 (HT29 colon)	GI50 (OVCAR-8 ovarian)	GI50 (MDA-MB-231 breast)	TGI (LXFL 529 NSCLC)
O=C(C#Cc1ccccc1)N1CCCCC1	> 100 µM	> 100 µM	> 100 µM	> 100 µM	> 100 µM	> 100 µM	> 100 µM	> 100 µM	–	–	–	–	–	–	–	–	–
CN1CCN(CCCn2c3c(sc4ncccc43)c(=O)n3nnc(-c4ccccc4)c23)CC1	3.73 µM	2.92 µM	3.5 µM	4.22 µM	10.7 µM	3.88 µM	4.31 µM	3.04 µM	1.87 µM	1.54 µM	1.79 µM	1.69 µM	5.81 µM	1.82 µM	1.88 µM	1.59 µM	–
Cc1cc(C(=O)NOCCO)c(Nc2ccc(I)cc2F)n(C)c1=O	> 100 µM	> 100 µM	> 100 µM	> 100 µM	> 100 µM	> 100 µM	> 100 µM	> 100 µM	–	–	0.00458 µM and < 0.01 µM	0.00909 µM and 0.0178 µM	> 83.9 µM	0.00193 µM and < 0.01 µM	> 36.5 µM	0.0075 µM and < 0.01 µM	–
COc1cc2cc(C(=O)Nc3ccccc3)c(N)nc2cc1OC	> 100 µM	> 100 µM	> 100 µM	> 100 µM	> 100 µM	> 100 µM	> 100 µM	> 100 µM	29.8 µM	63.1 µM	48.7 µM	56.3 µM	31.7 µM	51.5 µM	33.5 µM	59.6 µM	–
COc1cc(/C=C/[N+](=O)[O-])cc(OC)c1	17.3 µM	16.8 µM	10.3 µM	8.63 µM	3.31 µM	10.4 µM	13.9 µM	8.48 µM	4.87 µM	3.94 µM	2.99 µM	2.83 µM	1.74 µM	3.08 µM	3.72 µM	2.72 µM	–
O=Cc1cc2sc(C=O)cc2s1	> 100 µM	> 100 µM	–	> 100 µM	> 100 µM	> 100 µM	> 100 µM	–	–	–	–	–	–	–	–	–	> 100 µM
O=C(Nc1c(Cl)cccc1Cl)Oc1cccc2cccnc12	14 µM	40.2 µM	> 100 µM	> 100 µM	> 100 µM	> 100 µM	50 µM	25.3 µM	2.9 µM	4.47 µM	7.52 µM	3.68 µM	7.4 µM	19.4 µM	3.08 µM	4.24 µM	–
Fc1ccc(Nc2ccnc(N3CCN(c4ccnc5cc(Cl)ccc45)CC3)n2)cc1	> 100 µM	> 100 µM	4.92 µM	30.9 µM	6.26 µM	3.14 µM	6.12 µM	4.33 µM	2.36 µM	2.66 µM	1.93 µM	3.38 µM	2.28 µM	1.46 µM	2.16 µM	1.51 µM	–
